Several values for one entry are separate records, joined by “and”; a condition that tells them apart may be missing. Equal values may be shown once. Entries after “also recorded” stand apart in the source; their conditions may differ.
Test: Phase 1 single-ascending dose (Part 1): safety and tolerability in healthy adults
Assay type: in vivo, human
Description: This ongoing trial is a Phase 1 randomized, double-blind, placebo-controlled study in male and female healthy adult volunteers aged 18-55 years. All volunteers provided written, informed consent.
All volunteers were followed up for 4 weeks and safety and tolerability were continuously assessed throughout the study. All adverse events (AEs) were recorded from the time of consent to the completion visit and were graded using the DAIDS toxicity grading scale. Volunteers also underwent physical examinations, electrocardiograms, vital sign checks and clinical laboratory parameters (chemistry, haematology, urinalysis).

Structure (SMILES): CCCCOc1nc(N)c2[nH]cc(Cc3ccc(CN4CCCC4)cc3)c2n1 [Compound 4]
- vital signs: Supine SBP (mmHg) Grade 1 (single dose 1.25 mg fed): 0 n (%)
- vital signs: Supine SBP (mmHg) Grade 2 (single dose 1.25 mg fed): 0 n (%)
- vital signs: Supine SBP (mmHg) Low (single dose 1.25 mg fed): 0 n (%)
- vital signs: Supine pulse (bpm) Low (single dose 1.25 mg fed): 0 n (%)
- ↑ AST Grade 3 (laboratory abnormality) (single dose 1.25 mg fed): 0 n (%)
- ↑ Amylase Grade 2 (laboratory abnormality) (single dose 1.25 mg fed): 0 n (%)
- ↑ Cholesterol Grade 2 (laboratory abnormality) (single dose 1.25 mg fed): 1 (14) n (%)
- ↑ Creatine kinase Grade 2 (laboratory abnormality) (single dose 1.25 mg fed): 0 n (%)
- ↑ Creatine kinase Grade 4 (laboratory abnormality) (single dose 1.25 mg fed): 0 n (%)
- ↑ Glucose Grade 2 (laboratory abnormality) (single dose 1.25 mg fed): 0 n (%)
- ↑ LDL cholesterol Grade 2 (laboratory abnormality) (single dose 1.25 mg fed): 1 (14) n (%)
- ↑ LDL cholesterol Grade 3 (laboratory abnormality) (single dose 1.25 mg fed): 0 n (%)
- ↑ Lipase Grade 2 (laboratory abnormality) (single dose 1.25 mg fed): 0 n (%)
- ↑ Pancreatic amylase Grade 2 (laboratory abnormality) (single dose 1.25 mg fed): 0 n (%)
- ↑ Potassium Grade 2 (laboratory abnormality) (single dose 1.25 mg fed): 0 n (%)
- ↑ Sodium Grade 2 (laboratory abnormality) (single dose 1.25 mg fed): 0 n (%)
- ↑ Triglycerides Grade 2 (laboratory abnormality) (single dose 1.25 mg fed): 1 (14) n (%)
- ↑ Triglycerides Grade 3 (laboratory abnormality) (single dose 1.25 mg fed): 0 n (%)
- ↓ Bicarbonate Grade 2 (laboratory abnormality) (single dose 1.25 mg fed): 0 n (%)
- ↓ GFR Grade 2 (laboratory abnormality) (single dose 1.25 mg fed): 0 n (%)
- ↓ Lymphocytes Grade 2 (laboratory abnormality) (single dose 1.25 mg fed): 0 n (%)
- ↓ Lymphocytes Grade 4 (laboratory abnormality) (single dose 1.25 mg fed): 0 n (%)
- ↓ Neutrophils Grade 2 (laboratory abnormality) (single dose 1.25 mg fed): 0 n (%)
- ↓ Phosphate Grade 2 (laboratory abnormality) (single dose 1.25 mg fed): 1 (14) n (%)
- subjects with Grade 2 treatment-related AEs (pyrexia, headache and hypertension) (single dose 1.8 mg): 2 (33.3%) n (%)
- subjects with contact dermatitis (AE) (single dose 1.8 mg): 3 (50.0%) n (%)
- subjects with grade 1 increase in temperature around 12 hours after dosing (single dose 1.8 mg): Two
- Any AE (treatment-emergent) (single dose 1.8 mg fasted): 5 (83) n (%)
- Back pain Grade 1 (treatment-emergent AE) (single dose 1.8 mg fasted): 2 (33) n (%)
- Chills Grade 1 (treatment-emergent AE) (single dose 1.8 mg fasted): 2 (33) n (%)
- Contact dermatitis Grade 1 (treatment-emergent AE) (single dose 1.8 mg fasted): 3 (50) n (%)
- Dizziness Grade 1 (treatment-emergent AE) (single dose 1.8 mg fasted): 2 (33) n (%)
- ECG actual value: Heart rate (bpm) Low (single dose 1.8 mg fasted): 0 n (%)
- ECG actual value: QRS (ms) High (single dose 1.8 mg fasted): 0 n (%)
- ECG actual value: QTcB (ms) ]450; 480] (single dose 1.8 mg fasted): 0 n (%)
- ECG actual value: QTcF (ms) ]450; 480] (single dose 1.8 mg fasted): 0 n (%)
- ECG change from reference: QTcB (ms) [30; 60] (single dose 1.8 mg fasted): 1 (16.7%) n (%)
- ECG change from reference: QTcF (ms) [30; 60] (single dose 1.8 mg fasted): 0 n (%)
- Headache Grade 1 (treatment-emergent AE) (single dose 1.8 mg fasted): 0 n (%)
- Headache Grade 2 (treatment-emergent AE) (single dose 1.8 mg fasted): 1 (17) n (%)
- Hypertension Grade 1 (treatment-emergent AE) (single dose 1.8 mg fasted): 1 (17) n (%)
- Hypertension Grade 2 (treatment-emergent AE) (single dose 1.8 mg fasted): 1 (17) n (%)
- Myalgia Grade 1 (treatment-emergent AE) (single dose 1.8 mg fasted): 1 (17) n (%)
- Oropharyngeal pain Grade 1 (treatment-emergent AE) (single dose 1.8 mg fasted): 1 (17) n (%)
- Pyrexia Grade 1 (treatment-emergent AE) (single dose 1.8 mg fasted): 1 (17) n (%)
- Pyrexia Grade 2 (treatment-emergent AE) (single dose 1.8 mg fasted): 1 (17) n (%)
- URTI Grade 1 (treatment-emergent AE) (single dose 1.8 mg fasted): 1 (17) n (%)
- lab toxicity: Amylase (U/L), upwards, Grade 1 (single dose 1.8 mg fasted): 1 (16.7%) n (%)
- lab toxicity: Amylase (U/L), upwards, Grade 2 (single dose 1.8 mg fasted): 0 n (%)
- lab toxicity: Cholesterol (mmol/L), upwards, Grade 1 (single dose 1.8 mg fasted): 1 (16.7%) n (%)
- lab toxicity: Cholesterol (mmol/L), upwards, Grade 2 (single dose 1.8 mg fasted): 0 n (%)
- lab toxicity: Creatine kinase (U/L), upwards, Grade 1 (single dose 1.8 mg fasted): 0 n (%)
- lab toxicity: Creatine kinase (U/L), upwards, Grade 2 (single dose 1.8 mg fasted): 1 (16.7%) n (%)
- lab toxicity: Creatine kinase (U/L), upwards, Grade 4 (single dose 1.8 mg fasted): 0 n (%)
- lab toxicity: Glucose (mmol/L), upwards, Grade 1 (single dose 1.8 mg fasted): 0 n (%)
- lab toxicity: Glucose (mmol/L), upwards, Grade 2 (single dose 1.8 mg fasted): 0 n (%)
- lab toxicity: LDL cholesterol (mmol/L, calculated), upwards, Grade 1 (single dose 1.8 mg fasted): 0 n (%)
- lab toxicity: LDL cholesterol (mmol/L, calculated), upwards, Grade 2 (single dose 1.8 mg fasted): 0 n (%)
- lab toxicity: LDL cholesterol (mmol/L, calculated), upwards, Grade 3 (single dose 1.8 mg fasted): 0 n (%)
- lab toxicity: Lymphocytes (giga/L), downwards, Grade 2 (single dose 1.8 mg fasted): 0 n (%)
- lab toxicity: Lymphocytes (giga/L), downwards, Grade 4 (single dose 1.8 mg fasted): 2 (33.3%) n (%)
- lab toxicity: Neutrophils, segmented (giga/L), downwards, Grade 1 (single dose 1.8 mg fasted): 0 n (%)
- lab toxicity: Neutrophils, segmented (giga/L), downwards, Grade 2 (single dose 1.8 mg fasted): 1 (16.7%) n (%)
- lab toxicity: Platelets (giga/L), downwards, Grade 1 (single dose 1.8 mg fasted): 2 (33.3%) n (%)
- lab toxicity: Sodium (mmol/L), upwards, Grade 1 (single dose 1.8 mg fasted): 2 (33.3%) n (%)
- lab toxicity: Sodium (mmol/L), upwards, Grade 2 (single dose 1.8 mg fasted): 1 (16.7%) n (%)
- lab toxicity: Triglycerides (mmol/L), upwards, Grade 1 (single dose 1.8 mg fasted): 5 (83.3%) n (%)
- lab toxicity: Triglycerides (mmol/L), upwards, Grade 2 (single dose 1.8 mg fasted): 0 n (%)
- lab toxicity: Triglycerides (mmol/L), upwards, Grade 3 (single dose 1.8 mg fasted): 1 (16.7%) n (%)
- lab toxicity: Urate (μmol/L), upwards, Grade 1 (single dose 1.8 mg fasted): 1 (16.7%) n (%)
- subjects with at least one AE (single dose 1.8 mg fasted): 5 (83.3%) n (%)
- subjects with at least one AE for which any study drug or study was permanently stopped (single dose 1.8 mg fasted): 0 n (%)
- subjects with at least one AE for which any study drug or study was temporarily stopped (single dose 1.8 mg fasted): 0 n (%)
- subjects with at least one AE possibly related to any study drug (single dose 1.8 mg fasted): 1 (16.7%) n (%)
- subjects with at least one AE possibly, probably or very likely related to any study drug (single dose 1.8 mg fasted): 2 (33.3%) n (%)
- subjects with at least one AE probably related to any study drug (single dose 1.8 mg fasted): 2 (33.3%) n (%)
- subjects with at least one SAE (single dose 1.8 mg fasted): 0 n (%)
- subjects with at least one fatal AE (single dose 1.8 mg fasted): 0 n (%)
- subjects with at least one grade 1 AE (single dose 1.8 mg fasted): 3 (50.0%) n (%)
- subjects with at least one grade 2 AE (single dose 1.8 mg fasted): 2 (33.3%) n (%)
- subjects with at least one grade 3 or 4 AE (single dose 1.8 mg fasted): 0 n (%)
- subjects with fever and flu-like symptoms (flu-like AEs and lymphopenia) (single dose 1.8 mg fasted): 2 and 2/6
- subjects with high VLDL cholesterol levels (non-graded) (single dose 1.8 mg fasted): 4 (66.7%) n (%)
- subjects with high values for segmented neutrophils/leukocytes (non-graded) (single dose 1.8 mg fasted): 4 (66.7%) n (%)
- treatment-related AE: Any AE (single dose 1.8 mg fasted): 2 (33.3%) n (%)
- treatment-related AE: Chills (single dose 1.8 mg fasted): 2 (33.3%) n (%)
- treatment-related AE: Dizziness (single dose 1.8 mg fasted): 2 (33.3%) n (%)
- treatment-related AE: General disorders and administration site conditions (single dose 1.8 mg fasted): 2 (33.3%) n (%)
- treatment-related AE: Headache (single dose 1.8 mg fasted): 1 (16.7%) n (%)
- treatment-related AE: Hypertension (single dose 1.8 mg fasted): 2 (33.3%) n (%)
- treatment-related AE: Myalgia (single dose 1.8 mg fasted): 1 (16.7%) n (%)
- treatment-related AE: Nervous system disorders (single dose 1.8 mg fasted): 2 (33.3%) n (%)
- treatment-related AE: Oropharyngeal pain (single dose 1.8 mg fasted): 1 (16.7%) n (%)
- treatment-related AE: Pyrexia (single dose 1.8 mg fasted): 2 (33.3%) n (%)
- treatment-related AE: Respiratory, thoracic and mediastinal disorders (single dose 1.8 mg fasted): 1 (16.7%) n (%)
- treatment-related AE: Vascular disorder (single dose 1.8 mg fasted): 2 (33.3%) n (%)
- vital signs: Respiratory rate (brpm) Grade 1 (single dose 1.8 mg fasted): 2 (33.3%) n (%)
- vital signs: Respiratory rate (brpm) Grade 2 (single dose 1.8 mg fasted): 1 (16.7%) n (%)
- vital signs: SaO2 (%) 90% to <95% (single dose 1.8 mg fasted): 0 n (%)
- vital signs: SaO2 (%) 95% to <98% (single dose 1.8 mg fasted): 2 (33.3%) n (%)
- vital signs: Standing DBP (mmHg) Grade 1 (single dose 1.8 mg fasted): 3 (50.0%) n (%)
- vital signs: Standing DBP (mmHg) Grade 2 (single dose 1.8 mg fasted): 1 (16.7%) n (%)
- vital signs: Standing DBP (mmHg) Grade 3 (single dose 1.8 mg fasted): 1 (16.7%) n (%)
- vital signs: Standing DBP (mmHg) Low (single dose 1.8 mg fasted): 0 n (%)
- vital signs: Standing SBP (mmHg) Grade 1 (single dose 1.8 mg fasted): 1 (16.7%) n (%)
- vital signs: Standing SBP (mmHg) Low (single dose 1.8 mg fasted): 0 n (%)
- vital signs: Standing pulse (bpm) High (single dose 1.8 mg fasted): 0 n (%)
- vital signs: Standing pulse (bpm) Low (single dose 1.8 mg fasted): 0 n (%)
- vital signs: Supine DBP (mmHg) Grade 1 (single dose 1.8 mg fasted): 1 (16.7%) n (%)
- vital signs: Supine DBP (mmHg) Low (single dose 1.8 mg fasted): 0 n (%)
- vital signs: Supine SBP (mmHg) Grade 1 (single dose 1.8 mg fasted): 1 (16.7%) n (%)
- vital signs: Supine SBP (mmHg) Grade 2 (single dose 1.8 mg fasted): 1 (16.7%) n (%)
- vital signs: Supine SBP (mmHg) Low (single dose 1.8 mg fasted): 0 n (%)
- vital signs: Supine pulse (bpm) Low (single dose 1.8 mg fasted): 1 (16.7%) n (%)
- ↑ AST Grade 3 (laboratory abnormality) (single dose 1.8 mg fasted): 0 n (%)
- ↑ Amylase Grade 2 (laboratory abnormality) (single dose 1.8 mg fasted): 0 n (%)
- ↑ Cholesterol Grade 2 (laboratory abnormality) (single dose 1.8 mg fasted): 1/5
- ↑ Creatine kinase Grade 2 (laboratory abnormality) (single dose 1.8 mg fasted): 1 n (%)
- ↑ Creatine kinase Grade 4 (laboratory abnormality) (single dose 1.8 mg fasted): 0 n (%)
- ↑ Glucose Grade 2 (laboratory abnormality) (single dose 1.8 mg fasted): 0 n (%)
- ↑ LDL cholesterol Grade 2 (laboratory abnormality) (single dose 1.8 mg fasted): 0 n (%)
- ↑ LDL cholesterol Grade 3 (laboratory abnormality) (single dose 1.8 mg fasted): 0 n (%)
- ↑ Lipase Grade 2 (laboratory abnormality) (single dose 1.8 mg fasted): 1/5
- ↑ Pancreatic amylase Grade 2 (laboratory abnormality) (single dose 1.8 mg fasted): 1/2
- ↑ Potassium Grade 2 (laboratory abnormality) (single dose 1.8 mg fasted): 1/5
- ↑ Sodium Grade 2 (laboratory abnormality) (single dose 1.8 mg fasted): 1 n (%)
- ↑ Triglycerides Grade 2 (laboratory abnormality) (single dose 1.8 mg fasted): 0 n (%)
- ↑ Triglycerides Grade 3 (laboratory abnormality) (single dose 1.8 mg fasted): 1 n (%)
- ↓ Bicarbonate Grade 2 (laboratory abnormality) (single dose 1.8 mg fasted): 1 n (%)
- ↓ GFR Grade 2 (laboratory abnormality) (single dose 1.8 mg fasted): 0 n (%)
- ↓ Lymphocytes Grade 2 (laboratory abnormality) (single dose 1.8 mg fasted): 0 n (%)
- ↓ Lymphocytes Grade 4 (laboratory abnormality) (single dose 1.8 mg fasted): 2 n (%)
- ↓ Neutrophils Grade 2 (laboratory abnormality) (single dose 1.8 mg fasted): 1 n (%)
- ↓ Phosphate Grade 2 (laboratory abnormality) (single dose 1.8 mg fasted): 0 n (%)
- lab toxicity: GFR from creatinine adjusted for BSA (mL/s/1.73m^2), downwards, Grade 2 (single dose 1.8 mg fasted, n = 1 with data): 0 n (%)
- safety and tolerability (single oral doses of 0.2-1.8 mg): well tolerated with no major safety concerns; also recorded: generally considered safe and well tolerated

Source: patent publication US12263172B2, “Toll-like receptor agonists for use in the treatment of hepatitis b” (priority 2019, dated 2025)
